The values that follow come from patent US7595398B2, “N-(5-membered aromatic ring)-amido anti-viral compounds” (SmithKline Beecham Corporation, priority 2005, dated 2009).

The inhibition is the drop in the measured response relative to a control, in per cent.

This experiment deals with HCV replicon I389luc-ubi-neo/NS3-3′/ET in ET (Huh-lucubineo-ET) cells; screening for HCV RNA dependent RNA polymerase. Kind of experiment: Replicon Assay (luciferase, ET cell line Huh-lucubineo-ET). Type of experiment: cell-based. Particulars: Hepatitis C virus; inhibition of replication relative to no compound control; test concentration of 10 μM according to the fitted equation; luciferase 48-72 hours. The method, then: A cell line, ET (Huh-lucubineo-ET) was used for screening of compounds of the present invention for HCV RNA dependent RNA polymerase. The ET cell line was stably transfected with RNA transcripts harboring a I389luc-ubi-neo/NS3-3′/ET; replicon with firefly luciferase-ubiquitin-neomycin phosphotransferase fusion protein and EMCV-IRES driven NS3-5B polyprotein containing the cell culture adaptive mutations (E1202G; T12801; K1846T) (Krieger at al, 2001 and unpublished). The ET cells were grown in DMEM, supplemented with 10% fetal calf serum, 2 mM Glutamine, Penicillin (100 IU/mL)/Streptomycin (100 μg/mL), 1× nonessential amino acids, and 250 μg/mL G418 (“Geneticin”). They were all available through Life Technologies (Bethesda, Md.). The cells were plated at 0.5-1.0×10^4 cells/well in the 96 well plates and incubated for 24 hrs before adding nucleoside analogs. […] Luciferase activity were measured 48-72 hours later by adding a lysis buffer and the substrate (Catalog number Glo-lysis buffer E2661 and Bright-Glo luciferase system E2620 Promega, Madison, Wis.). Cells should not be too confluent during the assay. Percent inhibition of replication was plotted relative to no compound control. Under the same condition, cytotoxicity of the compounds was determined using cell proliferation reagent, WST-1(Roche, Germany). The compounds showing antiviral activities, but no significant cytotoxicities were chosen to determine IC50 and TC50. For these determinations, 10 concentrations of each compound were used. Concentrations for test compounds typically span a range of 500 fold. IC50 and TC50 values were calculated by fitting % inhibition at each concentration (I) to the following equation: % inhibition=100%/[1+10^(log IC50−log (I))*b] where b is Hill's coefficient.
(In general: In antiviral work, replicon cells carry a viral genome segment that copies itself.)
`O=C(Nc1nc(-c2ccc3c(c2)OCO3)cs1)[C@@H]1CCCN1C(=O)OCc1ccccc1` [Compound 5002, 2-(4-Benzo[1,3]dioxol-5-yl-thiazol-2-ylcarbamoyl)-pyrrolidine-1-carboxylic acid benzyl ester] showed an inhibition at 10 µM of 94.7%.
`O=C(NC1CNC1)c1ccc(-c2csc(NC(=O)[C@@H]3CCCN3C(=O)OCc3ccccc3)n2)cc1` [Compound 5337, 2-{4-[4-(Azetidin-3-ylcarbamoyl)-phenyl]-thiazol-2-ylcarbamoyl}-pyrrolidine-1-carboxylic acid benzyl ester]: at 10 µM the inhibition was 100%.
The value for `O=C(Nc1ncc(Cc2cccc(Cl)c2)s1)[C@@H]1CCCN1C(=O)OCc1ccccc1` [Compound 5029, 2-[5-(3-Chloro-benzyl)-thiazol-2-ylcarbamoyl]-pyrrolidine-1-carboxylic acid benzyl ester] was 0.52%; that for `O=C(Nc1ncc(Cc2ccccc2Cl)s1)[C@@H]1CCCN1C(=O)OCc1ccccc1` [Compound 5052, 2-[5-(2-Chloro-benzyl)-thiazol-2-ylcarbamoyl]-pyrrolidine-1-carboxylic acid benzyl ester] was 1.2%; that for `O=C(NC1CC1)c1ccc(-c2csc(NC(=O)[C@@H]3CCCN3C(=O)OCc3ccccc3)n2)cc1` [Compound 5096, 2-[4-(4-Cyclopropylcarbamoyl-phenyl)-thiazol-2-ylcarbamoyl]-pyrrolidine-1-carboxylic acid benzyl ester] was 100%.
To `O=C(Nc1nc(CSc2nc(-c3ccc(F)cc3)cs2)cs1)[C@@H]1CCCN1C(=O)OCc1ccccc1` [Compound 5061, 2-{4-[4-(4-Fluoro-phenyl)-thiazol-2-ylsulfanylmethyl]-thiazol-2-ylcarbamoyl}-pyrrolidine-1-carboxylic acid benzyl ester] belongs 88.4%.
In turn, `O=C(NC1CC1)c1ccc(-c2csc(NC(=O)[C@@H]3SCCN3C(=O)OCc3ccccc3)n2)cc1` [Compound 5350, 2-[4-(4-Cyclopropylcarbamoyl-phenyl)-thiazol-2-ylcarbamoyl]-thiazolidine-3-carboxylic acid benzyl ester] came in with an inhibition at 10 µM of 100%.
As for `Cc1sc2nc(SCc3csc(NC(=O)[C@@H]4CCCN4C(=O)OCc4ccccc4)n3)n(C)c(=O)c2c1C` [Compound 5032, 2-[4-(3,5,6-Trimethyl-4-oxo-3,4-dihydro-thieno[2,3-d]pyrimidin-2-ylsulfanylmethyl)-thiazol-2-ylcarbamoyl]-pyrrolidine-1-carboxylic acid benzyl ester], the inhibition at 10 µM worked out at 38.6%.
To `O=C(Cc1csc(NC(=O)[C@@H]2CCCN2C(=O)OCc2ccccc2)n1)NCCc1ccccc1` [Compound 5068, 2-[4-(Phenethylcarbamoyl-methyl)-thiazol-2-ylcarbamoyl]-pyrrolidine-1-carboxylic acid benzyl ester] belongs 13.5%.
In turn, `O=C(Nc1nc(-c2ccc(NCC3CC3)cc2)cs1)[C@@H]1CCCN1C(=O)OCc1ccccc1` [Compound 5330, 2-{4-[4-(Cyclopropylmethyl-amino)-phenyl]-thiazol-2-ylcarbamoyl}-pyrrolidine-1-carboxylic acid benzyl ester] showed an inhibition at 10 µM of 98.8%.
To `O=C(Nc1cccc(-c2csc(NC(=O)C3CCCN3C(=O)OCc3ccccc3)n2)c1)c1ccccc1` (stereo not shown) [Compound 5019, 2-[4-(3-Benzoylamino-phenyl)-thiazol-2-ylcarbamoyl]-pyrrolidine-1-carboxylic acid benzyl ester] belongs 100%; to `O=C(NC1CC1)c1ccc(-c2csc(NC(=O)[C@@H]3CCCN3C(=O)c3ccccc3)n2)cc1` [Compound 5367, 1-Benzoyl-pyrrolidine-2-carboxylic acid [4-(4-cyclopropylcarbamoyl-phenyl)-thiazol-2-yl]-amide], 97.3%; to `O=C(Nc1nc(-c2ccc(OCc3ccc(Br)cc3)cc2)cs1)[C@@H]1CCCN1C(=O)OCc1ccccc1` [Compound 5066, 2-{4-[4-(4-Bromo-benzyloxy)-phenyl]-thiazol-2-ylcarbamoyl}-pyrrolidine-1-carboxylic acid benzyl ester], 5.72%.
To `O=C(NCCCO)c1ccc(-c2csc(NC(=O)[C@@H]3CCCN3C(=O)OCc3ccccc3)n2)cc1` [Compound 5317, 2-{4-[4-(3-Hydroxy-propylcarbamoyl)-phenyl]-thiazol-2-ylcarbamoyl}-pyrrolidine-1-carboxylic acid benzyl ester] belongs 100%.
To `CC(C)CC1CC(C)(c2csc(NC(=O)[C@@H]3CCCN3C(=O)OCc3ccccc3)n2)OC1=O` (stereo in doubt) [Compound 5009, 2-[4-(4-Isobutyl-2-methyl-5-oxo-tetrahydro-furan-2-yl)-thiazol-2-ylcarbamoyl]-pyrrolidine-1-carboxylic acid benzyl ester] belongs 63.4%; to `O=C(Nc1cccc(-c2cnc(NC(=O)[C@@H]3CCCN3C(=O)OCc3ccccc3)s2)c1)c1ccccc1` [Compound 5113, 2-[5-(3-Benzoylamino-phenyl)-thiazol-2-ylcarbamoyl]-pyrrolidine-1-carboxylic acid benzyl ester], 99.7%; to `O=C(Nc1nc(COc2ccc(Cl)cc2)cs1)[C@@H]1CCCN1C(=O)OCc1ccccc1` [Compound 5045, 2-[4-(4-Chloro-phenoxymethyl)-thiazol-2-ylcarbamoyl]-pyrrolidine-1-carboxylic acid benzyl ester], 6.85%.
`O=C1CC(c2csc(NC(=O)[C@@H]3CCCN3C(=O)OCc3ccccc3)n2)C2(CCCCC2)O1` (stereo partly shown) [Compound 5044, 2-[4-(2-Oxo-1-oxa-spiro[4.5]dec-4-yl)-thiazol-2-ylcarbamoyl]-pyrrolidine-1-carboxylic acid benzyl ester] yielded an inhibition at 10 µM of 16.9%.
The compound `CC(=O)c1ccc(-c2csc(NC(=O)[C@@H]3CCCN3C(=O)OCc3ccccc3)n2)cc1` [Compound 5309, 2-[4-(4-Acetyl-phenyl)-thiazol-2-ylcarbamoyl]-pyrrolidine-1-carboxylic acid benzyl ester] returned an inhibition at 10 µM of 99.5%.
As for `CCCOc1ccc(-c2cnc(NC(=O)[C@@H]3CCCN3C(=O)OCc3ccccc3)s2)cc1` [Compound 5011, 2-[5-(4-Propoxy-phenyl)-thiazol-2-ylcarbamoyl]-pyrrolidine-1-carboxylic acid benzyl ester], the inhibition at 10 µM was 32.9%.
The value for `O=C(O)c1ccc(-c2cnc(NC(=O)[C@@H]3CCCN3C(=O)OCc3ccccc3)s2)cc1` [Compound 5353, 2-[5-(4-Carboxy-phenyl)-thiazol-2-ylcarbamoyl]-pyrrolidine-1-carboxylic acid benzyl ester] was 50.2%.
For the compound `O=C(Nc1nc(-c2ccc(NCC3CCCC3)cc2)cs1)[C@@H]1CCCN1C(=O)OCc1ccccc1` [Compound 5380, 2-{4-[4-(Cyclopentylmethyl-amino)-phenyl]-thiazol-2-ylcarbamoyl}-pyrrolidine-1-carboxylic acid benzyl ester], the inhibition at 10 µM was 98.3%.
`O=C(Nc1cc(-c2ccccc2)nn1-c1ccccc1)[C@@H]1CCCN1C(=O)OCc1ccccc1` [Compound 5065, 2-(2,5-Diphenyl-2H-pyrazol-3-ylcarbamoyl)-pyrrolidine-1-carboxylic acid benzyl ester]: the inhibition at 10 µM was 27.2%.
With `O=C(Nc1ccc(-c2csc(NC(=O)[C@@H]3C[C@@H](O)CN3C(=O)OCc3ccccc3)n2)cc1)C1CC1` [Compound 5310, 2-{4-[4-(Cyclopropanecarbonyl-amino)-phenyl]-thiazol-2-ylcarbamoyl}-4-hydroxy-pyrrolidine-1-carboxylic acid benzyl ester], the inhibition at 10 µM came out at 99.3%.
To `O=C(NC1CCCC1)c1ccc(-c2csc(NC(=O)[C@@H]3CCCN3C(=O)OCc3ccccc3)n2)cc1` [Compound 5100, 2-[4-(4-Cyclopentylcarbamoyl-phenyl)-thiazol-2-ylcarbamoyl]-pyrrolidine-1-carboxylic acid benzyl ester] belongs 99.1%; to `CCCCC(=O)Nc1ccc(-c2csc(NC(=O)[C@@H]3CCCN3C(=O)OCc3ccccc3)n2)cc1` [Compound 5089, 2-[4-(4-Pentanoylamino-phenyl)-thiazol-2-ylcarbamoyl]-pyrrolidine-1-carboxylic acid benzyl ester], 100%.
Regarding `O=C(NC1CC1)c1ccc(-c2csc(NC(=O)[C@@H]3CCCN3C(=O)OCc3ccc(F)cc3)n2)cc1` [Compound 5361, 2-[4-(4-Cyclopropylcarbamoyl-phenyl)-thiazol-2-ylcarbamoyl]-pyrrolidine-1-carboxylic acid 4-fluoro-benzyl ester], the inhibition at 10 µM turned out to be 98.4%.
The value for `O=C(Nc1ccccn1)c1ccc(-c2csc(NC(=O)[C@@H]3CCCN3C(=O)OCc3ccccc3)n2)cc1` [Compound 5372, 2-{4-[4-(Pyridin-2-ylcarbamoyl)-phenyl]-thiazol-2-ylcarbamoyl}-pyrrolidine-1-carboxylic acid benzyl ester] was 99.9%.
